Data on 13 compounds can be found in US12503436B2, “Compounds and compositions for treating conditions associated with STING activity” (NOVARTIS PHARMA AG, priority 2021, dated 2025).

A word on the pEC50: it is −log10 of the EC50, conventionally taken in molar units.

This test addresses STING (Homo sapiens, UniProt Q86WV6, G230A/H232R/R293Q/R71H). As to the kind of experiment: STING reporter assay in THP1-Dual KO-IFNAR2 cells (2′3′cGAMP stimulation, luciferase reporter). The format is cell-based. The note with it: 15 μM 2′3′cGAMP stimulation, 24 h, read-out: Pharmaron, THP1_IFNAR2 STING 24 h Luci Normalized: GeoMean EC50. In short, it runs like this: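 EC50 from secreted luciferase (QUANTI-Luc Plus luminescence of supernatant) after 24 h at 37 °C, 5% CO2. Cells: THP1-Dual KO-IFNAR2, treated with compound (0.0017-100 μM final) plus lipofected 2′3′cGAMP at 15 μM final.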
(In general: Reporter assays use an easily measured gene product as a stand-in for the process of interest.)

pEC50: −log10 of the molar value.

Chain of STING (Q86WV6 whole entry R71H/G230A/H232R/R293Q): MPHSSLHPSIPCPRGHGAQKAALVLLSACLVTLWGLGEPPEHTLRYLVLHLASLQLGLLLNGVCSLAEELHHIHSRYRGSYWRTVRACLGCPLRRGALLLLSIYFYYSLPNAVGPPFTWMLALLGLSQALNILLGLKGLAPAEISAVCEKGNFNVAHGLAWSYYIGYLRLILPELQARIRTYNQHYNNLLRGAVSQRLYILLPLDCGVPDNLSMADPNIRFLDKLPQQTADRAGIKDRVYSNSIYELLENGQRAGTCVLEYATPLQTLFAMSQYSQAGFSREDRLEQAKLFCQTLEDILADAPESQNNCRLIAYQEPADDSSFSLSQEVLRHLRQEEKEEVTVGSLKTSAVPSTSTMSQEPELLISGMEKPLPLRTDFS

As to `COCC1(C(=O)Nc2c[nH]c3ccc(OCC[C@@H]4C[C@@H]5CN(CC(F)(F)F)C[C@@H]5C4)cc23)CC1` [Compound 305, 1-(methoxymethyl)-N-(5-(2-((3aR,5r,6aS)-2-(2,2,2-trifluoroethyl)octahydrocyclopenta[c]pyrrol-5-yl)ethoxy)-1H-indol-3-yl)cyclopropane-1-carboxamide], the pEC50 was 5.30 to 6.00.

For the compound `CC(=O)Nc1c[nH]c2ccc(OCCc3ccc(C(F)(F)F)nc3)cc12` [Compound 113, N-(5-(2-(6-(trifluoromethyl)pyridin-3-yl)ethoxy)-1H-indol-3-yl)acetamide], the pEC50 was 5.30 to 6.00.

Turning to `O=C(Nc1c[nH]c2ccc(OCCc3ccc(C(F)(F)F)nc3)cc12)C1COC1` [Compound 373, N-(5-(2-(6-(trifluoromethyl)pyridin-3-yl)ethoxy)-1H-indol-3-yl)oxetane-3-carboxamide], the pEC50 was 5.30 to 6.00.

Take `C[C@H]1C[C@H](C(=O)Nc2c[nH]c3ccc(O[C@H]4C[C@@H](c5ccc(C(F)(F)F)cc5)C4)cc23)C1` [Compound 334, trans-3-methyl-N-(5-(cis-3-(4-(trifluoromethyl)phenyl)cyclobutoxy)-1H-indol-3-yl)cyclobutane-1-carboxamide]: the pEC50 is 6.70 to 7.40.

`COCCOCC(=O)Nc1c[nH]c2ccc(O[C@H]3C[C@H](c4ccc(C(F)(F)F)cc4)C3)cc12` [Compound 486, 2-(2-methoxyethoxy)-N-{5-[(1R,3R)-3-[4-(trifluoromethyl)phenyl]cyclobutoxy]-1H-indol-3-yl}acetamide]: the negative logarithm of the EC50 (pEC50) was 6.70 to 7.40.

With `CC1(C(=O)Nc2c[nH]c3ccc(OC[C@@H]4C[C@H]5CC[C@@H](C4)N5CC(F)(F)F)cc23)COC1` [Compound 485, 3-methyl-N-(5-(((1R,3s,5S)-8-(2,2,2-trifluoroethyl)-8-azabicyclo[3.2.1]octan-3-yl)methoxy)-1H-indol-3-yl)oxetane-3-carboxamide], the negative logarithm of the EC50 (pEC50) is 5.30 to 6.00.

In the case of `O=C(Nc1c[nH]c2ccc(CCOc3ccc(C(F)(F)F)cc3)cc12)C1CC1(F)Cl` (stereo not shown) [Compound 175, 2-chloro-2-fluoro-N-(5-(2-(4-(trifluoromethyl)phenoxy)ethyl)-1H-indol-3-yl)cyclopropane-1-carboxamide], the negative-log EC50 (pEC50) is 6.00 to 6.70.

In the case of `C[C@]1(C(=O)Nc2c[nH]c3ccc(OCc4ccc(C(F)(F)F)cc4)cc23)CC[C@H](O)CC1` [Compound 418, trans-4-hydroxy-1-methyl-N-(5-((4-(trifluoromethyl)benzyl)oxy)-1H-indol-3-yl)cyclohexane-1-carboxamide], the pEC50 was 6.00 to 6.70.

With `CC(=O)Nc1c[nH]c2ccc(OCCC34CC(C(F)(F)F)(C3)C4)cc12` [Compound 474, N-(5-(2-(3-(trifluoromethyl)bicyclo[1.1.1]pentan-1-yl)ethoxy)-1H-indol-3-yl)acetamide], the pEC50 was 6.00 to 6.70.

In the case of `CC(=O)Nc1c[nH]c2ccc(C(C)C[C@@H]3C[C@@H]4CN(CC(F)(F)F)C[C@@H]4C3)cc12` (stereo partly drawn) [Compound 538, N-(5-(1-((3aR,5r,6aS)-2-(2,2,2-trifluoroethyl)octahydrocyclopenta[c]pyrrol-5-yl)propan-2-yl)-1H-indol-3-yl)acetamide], the pEC50 was 5.30 to 6.00.

On to `CC1(C)CC1C(=O)Nc1c[nH]c2ccc(OCc3ccc(C(F)(F)F)cc3)cc12` (stereo not shown) [Compound 155, 2,2-dimethyl-N-(5-((4-(trifluoromethyl)benzyl)oxy)-1H-indol-3-yl)cyclopropane-1-carboxamide], for which the pEC50 is 6.00 to 6.70.

As to `CC(=O)Nc1c[nH]c2ccc(OCC[C@@H]3[C@H]4CN(CC(F)(F)F)C[C@@H]34)cc12` [Compound 110, N-(5-(2-((1R,5S,6s)-3-(2,2,2-trifluoroethyl)-3-azabicyclo[3.1.0]hexan-6-yl)ethoxy)-1H-indol-3-yl)acetamide], the pEC50 was 6.00 to 6.70.

Take `COCC1(C(=O)Nc2c[nH]c3ccc(OCCc4ccc(C(F)(F)F)cc4)cc23)CC1` [Compound 204, 1-(methoxymethyl)-N-(5-(4-(trifluoromethyl)phenethoxy)-1H-indol-3-yl)cyclopropane-1-carboxamide]: the pEC50 was 6.70 to 7.40.
